Source: PubChem BioAssay AID1963981 (Molecular Pharmacology Branch, DTP, NCI, 2024)
pIC50: −log10 of the molar value. Values belong to the compound of their own block, whether it stands above or below them.

Test system: 354836-022-R-J1-PDC multicell spheroid viability
Assay: Anticancer human tumor 354836-022-R-J1-PDC patient-derived head and neck squamous cell carcinoma cell line growth inhibition [PI3K]
Settings: for pIC50: curve of first compound; for viability, T/C: stronger effect = lower value
Method in brief: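 Spheroid viability read-out. Co-cultures contained the tumor line plus HUVEC and human MSCs. Each agent was paired with a PI3K inhibitor (inavolisib, alpelisib, duvelisib, copanlisib) across half-log dilutions starting at clinical Cmax, or at 10 microM when Cmax was unknown.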

[1] = second compound 0.0316 µM, first compound 0.0316 µM
[2] = second compound 0.0316 µM, first compound 0.1 µM
[3] = second compound 0.1 µM, first compound 0.0316 µM
[4] = second compound 0.1 µM, first compound 0.1 µM
[5] = second compound 0.316 µM, first compound 0.0316 µM
[6] = second compound 0.316 µM, first compound 0.1 µM
[7] = second compound 1 µM, first compound 0.0316 µM
[8] = second compound 1 µM, first compound 0.1 µM
[9] = second compound 3.16 µM, first compound 0.0316 µM
[10] = second compound 3.16 µM, first compound 0.1 µM
[11] = second compound 10 µM, first compound 0.0316 µM
[12] = second compound 10 µM, first compound 0.1 µM
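Further: spheroids exposed to agents for seven days before the viability read.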

pIC50 (second compound 0.0316 µM): < 7.00 | pIC50 (second compound 0.1 µM): < 7.00 | pIC50 (second compound 0.316 µM): < 7.00 | pIC50 (second compound 1 µM): < 7.00 | pIC50 (second compound 3.16 µM): < 7.00 | pIC50 (second compound 10 µM): > 9.50
Compound: Cn1ncnc1[C@H]1c2n[nH]c(=O)c3cc(F)cc(c23)N[C@@H]1c1ccc(F)cc1 + Cc1nc(NC(=O)N2CCCC2C(N)=O)sc1-c1ccnc(C(C)(C)C(F)(F)F)c1
viability, T/C (second compound 0.0316 µM, first compound 0.000316 µM): 115% | viability, T/C (second compound 0.0316 µM, first compound 0.001 µM): 90.7% | viability, T/C (second compound 0.0316 µM, first compound 0.00316 µM): 107% | viability, T/C (second compound 0.0316 µM, first compound 0.01 µM): 98.4% | viability, T/C [1]: 105% | viability, T/C [2]: 88.3% | viability, T/C (second compound 0.1 µM, first compound 0.000316 µM): 93.6% | viability, T/C (second compound 0.1 µM, first compound 0.001 µM): 88.7% | viability, T/C (second compound 0.1 µM, first compound 0.00316 µM): 98% | viability, T/C (second compound 0.1 µM, first compound 0.01 µM): 93% | viability, T/C [3]: 98.5% | viability, T/C [4]: 94% | viability, T/C (second compound 0.316 µM, first compound 0.000316 µM): 85% | viability, T/C (second compound 0.316 µM, first compound 0.001 µM): 103% | viability, T/C (second compound 0.316 µM, first compound 0.00316 µM): 99.5% | viability, T/C (second compound 0.316 µM, first compound 0.01 µM): 95.8% | viability, T/C [5]: 81.4% | viability, T/C [6]: 89.9% | viability, T/C (second compound 1 µM, first compound 0.000316 µM): 80.8% | viability, T/C (second compound 1 µM, first compound 0.001 µM): 85.3% | viability, T/C (second compound 1 µM, first compound 0.00316 µM): 83.3% | viability, T/C (second compound 1 µM, first compound 0.01 µM): 86.6% | viability, T/C [7]: 85.3% | viability, T/C [8]: 77.3% | viability, T/C (second compound 3.16 µM, first compound 0.000316 µM): 58.2% | viability, T/C (second compound 3.16 µM, first compound 0.001 µM): 70.1% | viability, T/C (second compound 3.16 µM, first compound 0.00316 µM): 62.8% | viability, T/C (second compound 3.16 µM, first compound 0.01 µM): 67.3% | viability, T/C [9]: 59.3% | viability, T/C [10]: 62.2% | viability, T/C (second compound 10 µM, first compound 0.000316 µM): 39.7% | viability, T/C (second compound 10 µM, first compound 0.001 µM): 38.9% | viability, T/C (second compound 10 µM, first compound 0.00316 µM): 43.4% | viability, T/C (second compound 10 µM, first compound 0.01 µM): 45.5% | viability, T/C [11]: 31.1% | viability, T/C [12]: 30.3%

IC50 (curve of compound): 319 nM [middle of 4 runs]
Compound: CC(C)NCC(C(=O)N1CCN(c2ncnc3c2C(C)CC3O)CC1)c1ccc(Cl)cc1 (stereo not drawn)
viability, T/C (compound 0.0316 µM): 96.5% [middle of 4 runs] | viability, T/C (compound 0.1 µM): 71% [middle of 4 runs] | viability, T/C (compound 0.316 µM): 54.1% [middle of 4 runs] | viability, T/C (compound 1 µM): 24.7% [middle of 4 runs] | viability, T/C (compound 3.16 µM): 18% [middle of 4 runs] | viability, T/C (compound 10 µM): 14.2% [middle of 4 runs]

pIC50 (second compound 0.00316 µM): < 5.52 | pIC50 (second compound 0.01 µM): < 5.52 | pIC50 (second compound 0.0316 µM): < 5.52 | pIC50 (second compound 0.1 µM): < 5.52 | pIC50 (second compound 0.316 µM): 5.64 | pIC50 (second compound 1 µM): 6.60
Compound: Cn1cnc2c(F)c(Nc3ccc(Br)cc3Cl)c(C(=O)NOCCO)cc21 + CC(Nc1ccc2c(c1)OCCn1cc(N3C(=O)OCC3C(F)F)nc1-2)C(N)=O
viability, T/C (second compound 0.00316 µM, first compound 0.00949 µM): 98% | viability, T/C (second compound 0.00316 µM, first compound 0.03 µM): 75.2% | viability, T/C (second compound 0.00316 µM, first compound 0.0949 µM): 92.6% | viability, T/C (second compound 0.00316 µM, first compound 0.3 µM): 78% | viability, T/C (second compound 0.00316 µM, first compound 0.949 µM): 79.2% | viability, T/C (second compound 0.00316 µM, first compound 3 µM): 54.9% | viability, T/C (second compound 0.01 µM, first compound 0.00949 µM): 93.2% | viability, T/C (second compound 0.01 µM, first compound 0.03 µM): 78.7% | viability, T/C (second compound 0.01 µM, first compound 0.0949 µM): 87% | viability, T/C (second compound 0.01 µM, first compound 0.3 µM): 78.7% | viability, T/C (second compound 0.01 µM, first compound 0.949 µM): 75.6% | viability, T/C (second compound 0.01 µM, first compound 3 µM): 56% | viability, T/C (second compound 0.0316 µM, first compound 0.00949 µM): 90% | viability, T/C (second compound 0.0316 µM, first compound 0.03 µM): 97.1% | viability, T/C (second compound 0.0316 µM, first compound 0.0949 µM): 96% | viability, T/C (second compound 0.0316 µM, first compound 0.3 µM): 83.5% | viability, T/C (second compound 0.0316 µM, first compound 0.949 µM): 83.7% | viability, T/C (second compound 0.0316 µM, first compound 3 µM): 65.1% | viability, T/C (second compound 0.1 µM, first compound 0.00949 µM): 88.4% | viability, T/C (second compound 0.1 µM, first compound 0.03 µM): 87.3% | viability, T/C (second compound 0.1 µM, first compound 0.0949 µM): 84.2% | viability, T/C (second compound 0.1 µM, first compound 0.3 µM): 80.5% | viability, T/C (second compound 0.1 µM, first compound 0.949 µM): 81.6% | viability, T/C (second compound 0.1 µM, first compound 3 µM): 55.9% | viability, T/C (second compound 0.316 µM, first compound 0.00949 µM): 80.9% | viability, T/C (second compound 0.316 µM, first compound 0.03 µM): 81% | viability, T/C (second compound 0.316 µM, first compound 0.0949 µM): 67.1% | viability, T/C (second compound 0.316 µM, first compound 0.3 µM): 68% | viability, T/C (second compound 0.316 µM, first compound 0.949 µM): 63.4% | viability, T/C (second compound 0.316 µM, first compound 3 µM): 45.4% | viability, T/C (second compound 1 µM, first compound 0.00949 µM): 72.2% | viability, T/C (second compound 1 µM, first compound 0.03 µM): 57.1% | viability, T/C (second compound 1 µM, first compound 0.0949 µM): 55.4% | viability, T/C (second compound 1 µM, first compound 0.3 µM): 52.8% | viability, T/C (second compound 1 µM, first compound 0.949 µM): 40.8% | viability, T/C (second compound 1 µM, first compound 3 µM): 24.7%

pIC50 (second compound 0.0316 µM): 6.50 | pIC50 (second compound 0.1 µM): 6.31 | pIC50 (second compound 0.316 µM): 6.47 | pIC50 (second compound 1 µM): 6.31 | pIC50 (second compound 3.16 µM): 6.42 | pIC50 (second compound 10 µM): 6.34
Compound: CC(C)NCC(C(=O)N1CCN(c2ncnc3c2C(C)CC3O)CC1)c1ccc(Cl)cc1 (stereo not drawn) + CC(Nc1ncnc2nc[nH]c12)c1cc2cccc(Cl)c2c(=O)n1-c1ccccc1
viability, T/C [1]: 87.3% | viability, T/C [2]: 75.8% | viability, T/C (second compound 0.0316 µM, first compound 0.316 µM): 47.8% | viability, T/C (second compound 0.0316 µM, first compound 1 µM): 27.4% | viability, T/C (second compound 0.0316 µM, first compound 3.16 µM): 10.1% | viability, T/C (second compound 0.0316 µM, first compound 10 µM): 3.75% | viability, T/C [3]: 90.7% | viability, T/C [4]: 79.7% | viability, T/C (second compound 0.1 µM, first compound 0.316 µM): 52.3% | viability, T/C (second compound 0.1 µM, first compound 1 µM): 43.7% | viability, T/C (second compound 0.1 µM, first compound 3.16 µM): 12.9% | viability, T/C (second compound 0.1 µM, first compound 10 µM): 3.85% | viability, T/C [5]: 100% | viability, T/C [6]: 77.7% | viability, T/C (second compound 0.316 µM, first compound 0.316 µM): 50.1% | viability, T/C (second compound 0.316 µM, first compound 1 µM): 32.2% | viability, T/C (second compound 0.316 µM, first compound 3.16 µM): 7.64% | viability, T/C (second compound 0.316 µM, first compound 10 µM): 5.53% | viability, T/C [7]: 95.2% | viability, T/C [8]: 84.8% | viability, T/C (second compound 1 µM, first compound 0.316 µM): 64.3% | viability, T/C (second compound 1 µM, first compound 1 µM): 27.3% | viability, T/C (second compound 1 µM, first compound 3.16 µM): 13.8% | viability, T/C (second compound 1 µM, first compound 10 µM): 3.16% | viability, T/C [9]: 102% | viability, T/C [10]: 82.3% | viability, T/C (second compound 3.16 µM, first compound 0.316 µM): 52.5% | viability, T/C (second compound 3.16 µM, first compound 1 µM): 30.8% | viability, T/C (second compound 3.16 µM, first compound 3.16 µM): 12.4% | viability, T/C (second compound 3.16 µM, first compound 10 µM): 4.48% | viability, T/C [11]: 87.5% | viability, T/C [12]: 76.7% | viability, T/C (second compound 10 µM, first compound 0.316 µM): 61.2% | viability, T/C (second compound 10 µM, first compound 1 µM): 28.4% | viability, T/C (second compound 10 µM, first compound 3.16 µM): 11% | viability, T/C (second compound 10 µM, first compound 10 µM): 3.05%
